# Reference: US9073940B2, “Tricyclic pyrazol amine derivatives” (MERCK SERONO SA, priority 2009, dated 2015)
# Test system: 4 PI3K isoforms (Human recombinant GST-PI3K)
# Assay: PI3K scintillation proximity assay, best IC50 obtained with the four isoforms (alpha, beta, delta, gamma)
# Assay type: biochemical
# Conditions: best IC50 obtained with the four isoforms of PI3K; read-out: Best potency measured on the 4 PI3K isoforms
row,Compound,IC50
1,COCCNc1ccc2c(c1)-c1c(c(C(=O)N3CCOCC3)nn1C1CCCCC1)CS2(=O)=O [Example 89],1390 nM
2,"CC(C)(C)C1CCC(n2nc(C(=O)N3CCOCC3)c3c2-c2ccccc2S(=O)(=O)C3)CC1 (stereo not drawn) [Example 94, 1-(4-tert-Butylcyclohexyl)-3-(morpholin-4-ylcarbonyl)-1,4-dihydrothiochromeno[4,3-c]pyrazole 5,5-dioxide]",4120 nM
3,"O=C(c1nn(C2CCC(O)CC2)c2c1CS(=O)(=O)c1ccccc1-2)N1CCOCC1 (stereo not drawn) [Example 98, 4-[3-(Morpholin-4-ylcarbonyl)-5,5-dioxidothiochromeno[4,3-c]pyrazol-1(4H)-yl]cyclohexanol]",512 nM
4,O=C(c1nn(C2CCCOC2)c2c1CS(=O)(=O)c1ccccc1-2)N1CCOCC1 (stereo not drawn) [Example 99],326 nM
5,"COCCN1CCC(n2nc(C(=O)N3CCOCC3)c3c2-c2ccccc2S(=O)(=O)C3)CC1 [Example 101, 1-[1-(2-Methoxyethyl)piperidin-4-yl]-3-(morpholin-4-ylcarbonyl)-1,4-dihydrothiochromeno[4,3-c]pyrazole 5,5-dioxide]",1920 nM
6,"CN1CCN(C(=O)c2ccc3c(c2)-c2c(c(C(=O)N4CCOCC4)nn2-c2ccccc2)CS3(=O)=O)CC1 [Example 114, 8-[(4-Methylpiperazin-1-yl)carbonyl]-3-(morpholin-4-ylcarbonyl)-1-phenyl-1,4-dihydrothiochromeno[4,3-c]pyrazole 5,5-dioxide]",4280 nM
7,"CN(C)C(=O)c1ccc2c(c1)-c1c(c(C(=O)N3CCOCC3)nn1-c1ccccc1)CS2(=O)=O [Example 115, N,N-Dimethyl-3-(morpholin-4-ylcarbonyl)-1-phenyl-1,4-dihydrothiochromeno[4,3-c]pyrazole-8-carboxamide 5,5-dioxide]",3730 nM
8,"O=C(c1ccc2c(c1)-c1c(c(C(=O)N3CCOCC3)nn1-c1ccccc1)CS2(=O)=O)N1CCOCC1 [Example 116, 3,8-Bis(morpholin-4-ylcarbonyl)-1-phenyl-1,4-dihydrothiochromeno[4,3-c]pyrazole 5,5-dioxide]",3030 nM
9,"O=C(c1ccc2c(c1)-c1c(c(C(=O)N3CCOCC3)nn1-c1ccccc1)CS2(=O)=O)N1CCCCC1 [Example 117, 3-(Morpholin-4-ylcarbonyl)-1-phenyl-8-(piperidin-1-ylcarbonyl)-1,4-dihydrothiochromeno[4,3-c]pyrazole 5,5-dioxide]",3410 nM
10,"CC(C)(C)OC(=O)N1CCC(n2nc(C(=O)N3CCOCC3)c3c2-c2ccccc2S(=O)(=O)C3)CC1 [Example 119, tert-Butyl 4-[3-(morpholin-4-ylcarbonyl)-5,5-dioxidothiochromeno[4,3-c]pyrazol-1(4H)-yl]piperidine-1-carboxylate]",808 nM
11,CC(C)(C)OC(=O)N1CCCC(n2nc(C(=O)N3CCOCC3)c3c2-c2ccccc2S(=O)(=O)C3)C1 (stereo not drawn) [Example 120],1540 nM
12,"O=C(c1nn(C2CCN(CCO)CC2)c2c1CS(=O)(=O)c1ccccc1-2)N1CCOCC1 [Example 121, 2-{4-[3-(Morpholin-4-ylcarbonyl)-5,5-dioxidothiochromeno[4,3-c]pyrazol-1 (4H)-yl]piperidin-1-yl}ethanol]",1760 nM
13,"CS(=O)(=O)N1CCC(n2nc(C(=O)N3CCOCC3)c3c2-c2ccccc2S(=O)(=O)C3)CC1 [Example 123, 1-[1-(Methylsulfonyl)piperidin-4-yl]-3-(morpholin-4-ylcarbonyl)-1,4-dihydrothiochromeno[4,3-c]pyrazole 5,5-dioxide]",2100 nM
14,"CN1CCN(C(=O)c2cccc(-n3nc(C(=O)N4CCOCC4)c4c3-c3ccccc3S(=O)(=O)C4)c2)CC1 [Example 124, 1-{3-[(4-Methylpiperazin-1-yl)carbonyl]phenyl}-3-(morpholin-4-ylcarbonyl)-1,4-dihydrothiochromeno[4,3-c]pyrazole 5,5-dioxide]",253 nM
15,"O=C(c1cccc(-n2nc(C(=O)N3CCOCC3)c3c2-c2ccccc2S(=O)(=O)C3)c1)N1CCCCC1 [Example 125, 3-(Morpholin-4-ylcarbonyl)-1-[3-(piperidin-1-ylcarbonyl)phenyl]-1,4-dihydrothiochromeno[4,3-c]pyrazole 5,5-dioxide]",182 nM
16,"COCCNC(=O)c1cccc(-n2nc(C(=O)N3CCOCC3)c3c2-c2ccccc2S(=O)(=O)C3)c1 [Example 126, N-(2-Methoxyethyl)-3-[3-(morpholin-4-ylcarbonyl)-5,5-dioxidothiochromeno[4,3-c]pyrazol-1 (4H)-yl]benzamide]",1110 nM
17,"CC1CCC(n2nc(C(=O)N3CCOCC3)c3c2-c2ccccc2S(=O)(=O)C3)CC1 (stereo not drawn) [Example 127, 1-(4-Methylcyclohexyl)-3-(morpholin-4-ylcarbonyl)-1,4-dihydrothiochromeno[4,3-c]pyrazole 5,5-dioxide]",426 nM
18,"O=C(c1nn(C2CCCCC2)c2c1CS(=O)(=O)c1cc(Br)ccc1-2)N1CCOCC1 [Example 128, 7-Bromo-1-cyclohexyl-3-(morpholin-4-ylcarbonyl)-1,4-dihydrothiochromeno[4,3-c]pyrazole 5,5-dioxide]",691 nM
19,"COc1ccc(-n2nc(C(=O)N3CCOCC3)c3c2-c2ccccc2S(=O)(=O)C3)cn1 [Example 131, 1-(6-Methoxypyridin-3-yl)-3-(morpholin-4-ylcarbonyl)-1,4-dihydrothiochromeno[4,3-c]pyrazole 5,5-dioxide]",2200 nM
20,"COCCN1CCCC(n2nc(C(=O)N3CCOCC3)c3c2-c2ccccc2S(=O)(=O)C3)C1 (stereo not drawn) [Example 133, 1-[1-(2-Methoxyethyl)piperidin-3-yl]-3-(morpholin-4-ylcarbonyl)-1,4-dihydrothiochromeno[4,3-c]pyrazole 5,5-dioxide]",188 nM
21,"O=C(c1nn(C2CCCN(CCO)C2)c2c1CS(=O)(=O)c1ccccc1-2)N1CCOCC1 (stereo not drawn) [Example 134, 2-{3-[3-(Morpholin-4-ylcarbonyl)-5,5-dioxidothiochromeno[4,3-c]pyrazol-1 (4H)-yl]piperidin-1-yl}ethanol]",815 nM
22,"CS(=O)(=O)N1CCCC(n2nc(C(=O)N3CCOCC3)c3c2-c2ccccc2S(=O)(=O)C3)C1 (stereo not drawn) [Example 135, 1[1-(Methylsulfonyl)piperidin-3-yl]-3-(morpholin-4-ylcarbonyl)-1,4-dihydrothiochromeno[4,3-c]pyrazole 5,5-dioxide]",994 nM

# Next, values leading:
row,IC50,Compound
1,1130 nM,"O=C(c1nn(-c2cccnc2)c2c1CS(=O)(=O)c1ccccc1-2)N1CCOCC1 [Example 88, 3-(Morpholin-4-ylcarbonyl)-1-pyridin-3-yl-1,4-dihydrothiochromeno[4,3-c]pyrazole 5,5-dioxide]"
2,876 nM,"CC(=O)Nc1ccc2c(c1)-c1c(c(C(=O)N3CCOCC3)nn1-c1ccccc1)CS2(=O)=O [Example 100, N-[3-(Morpholin-4-ylcarbonyl)-5,5-dioxido-1-phenyl-1,4-dihydrothiochromeno[4,3-c]pyrazol-8-yl]acetamide]"
3,5270 nM,"Cn1nc(C(=O)N2CCOCC2)c2c1-c1ccccc1S(=O)(=O)C2Cc1ccccc1 (stereo not drawn) [Example 111, 4-Benzyl-1-methyl-3-(morpholin-4-ylcarbonyl)-1,4-dihydrothiochromeno[4,3-c]pyrazole 5,5-dioxide]"
4,5070 nM,"COCCCC1c2c(C(=O)N3CCOCC3)nn(-c3ccccc3)c2-c2ccccc2S1(=O)=O (stereo not drawn) [Example 112, 4-(3-Methoxypropyl)-3-(morpholin-4-ylcarbonyl)-1-phenyl-1,4-dihydrothiochromeno[4,3-c]pyrazole 5,5-dioxide]"
5,3350 nM,"COc1ccc2c(c1)-c1c(c(C(=O)N3CCOCC3)nn1-c1ccccc1)CS2(=O)=O [Example 113, 8-Methoxy-3-(morpholin-4-ylcarbonyl)-1-phenyl-1,4-dihydrothiochromeno[4,3-c]pyrazole 5,5-dioxide]"
6,1310 nM,"CS(=O)(=O)Nc1ccc2c(c1)-c1c(c(C(=O)N3CCOCC3)nn1-c1ccccc1)CS2(=O)=O [Example 118, N-[3-(Morpholin-4-ylcarbonyl)-5,5-dioxido-1-phenyl-1,4-dihydrothiochromeno[4,3-c]pyrazol-8-yl]methanesulfonamide]"
7,904 nM,O=C(c1nn(-c2ccccc2)c2c1CS(=O)(=O)c1cc(Br)ccc1-2)N1CCOCC1 [Example 122]
8,1500 nM,"Cc1ccc2c(c1)-c1c(c(C(=O)N3CCOCC3)nn1-c1ccccc1)CS2(=O)=O [Example 129, 8-Methyl-3-(morpholin-4-ylcarbonyl)-1-phenyl-1,4-dihydrothiochromeno[4,3-c]pyrazole 5,5-dioxide]"
9,4520 nM,"CS(=O)(=O)c1ccc(-n2nc(C(=O)N3CCOCC3)c3c2-c2ccccc2S(=O)(=O)C3)cc1 [Example 130, 1-[4-(Methylsulfonyl)phenyl]-3-(morpholin-4-ylcarbonyl)-1,4-dihydrothiochromeno[4,3-c]pyrazole 5,5-dioxide]"
10,530 nM,"O=C(c1nn(-c2ccccc2)c2c1CS(=O)(=O)c1ncccc1-2)N1CCOCC1 [Example 132, 3-(Morpholin-4-ylcarbonyl)-1-phenyl-1,4-dihydropyrazolo[3′,4′:4,5]thiopyrano[2,3-b]pyridine 5,5-dioxide]"
11,2560 nM,"CS(=O)(=O)c1cccc(-n2nc(C(=O)N3CCOCC3)c3c2-c2ccccc2S(=O)(=O)C3)c1 [Example 138, 1-[3-(Methylsulfonyl)phenyl]-3-(morpholin-4-ylcarbonyl)-1,4-dihydrothiochromeno[4,3-c]pyrazole 5,5-dioxide]"
12,1840 nM,"Cc1ccc2c(c1)S(=O)(=O)Cc1c(C(=O)N3CCOCC3)nn(-c3ccccc3)c1-2 [Example 139, 7-Methyl-3-(morpholin-4-ylcarbonyl)-1-phenyl-1,4-dihydrothiochromeno[4,3-c]pyrazole 5,5-dioxide]"
13,4520 nM,"NCCCC1c2c(C(=O)N3CCOCC3)nn(-c3ccccc3)c2-c2ccccc2S1(=O)=O (stereo not drawn) [Example 140, 3-[3-(Morpholin-4-ylcarbonyl)-5,5-dioxido-1-phenyl-1,4-dihydrothiochromeno[4,3-c]pyrazol-4-yl]propan-1-amine]"
14,2250 nM,"O=C(c1nn(-c2cccc(CO)c2)c2c1CS(=O)(=O)c1ccccc1-2)N1CCOCC1 [Example 141, {3-[3-(Morpholin-4-ylcarbonyl)-5,5-dioxidothiochromeno[4,3-c]pyrazol-1(4H)-yl]phenyl}methanol]"
